Patent US12679822B2, “Alkenyl pyrimidine compound, preparation method therefor, and application thereof” (Hongyun Biotech Co., Ltd., priority 2020, dated 2026)

Columns and labels:
Assay type in all cases: cell-based
[1] = biological target: BaF3 cell lines stably transfected with kinase EGFR Del/T790M/C797S (Homo sapiens, UniProt P00533, T790M/C797S, cells depend on it, form not given); experiment: Growth inhibition of BaF3 cell line stably transfected with kinase EGFR Del/T790M/C797S (MTS); conditions: 48 h, read-out: growth inhibitory activity IC50, Del/T790M/C797S
Description: (§1) Biological Activity Assay: Growth Inhibitory Activity of Compounds on Cell Lines Stably Transfected with Kinase
(§2) The activity of compounds against various mutants of kinase EGFR was evaluated by their effect of inhibiting growth of BaF3 cell lines stably transfected with kinase. The specific test method was given as follows:
(§3) 1) Culture medium: DMEM (Dulbecco's modified eagle medium) or RPMI 1640 (containing 10% fetal bovine serum, 100 μg/mL ampicillin, 100 μg/mL streptomycin).
(§4) 2) Reagent: MTS reaction solution (containing 2 mg/mL of MTS [3-(4,5-di methylthiazol-2-yl)-5-(3-carboxymethoxyphenyl)-2-(4-sulfophenyl)-2H-tetrazolium, inner Salt]; 100 μg/mL of PES (phenazine […])).
(§5) 3) Compound test: cells were incubated into a 96-well culture plate, the volume of cytosol was 90 μL, and then 10 μL of the compound at each gradient concentration was added. That is, the highest concentration was 10 μM, which was diluted stepwise by ⅓, and 8 concentration points were set in total; 0.1% DMSO (dimethyl sulfoxide) was contained in the system. The cell plate with uniformly mixed compound was cultured in a cell culture incubator (37° C.; 5% […]) for 48 h, then 20 μL of MTS reaction solution was added, uniformly mixed and incubated in the cell culture incubator (37° C.; 5% CO2) for 1-4 h; OD values at 490 nm were measured by a microplate reader (VARIOSKAN FLASH, Thermo). Two parallels were set in each group of experiments, with 0.1% (a final concentration) DMSO as a negative control, and a culture medium without cells and compounds as a blank control. The cell growth inhibition rate was calculated by the following formula: Cell growth inhibition rate %=1−(ODexperimental group−ODblank group)/(ODnegative group−ODblank group)×100%.
(§6) 4) IC50 calculation: The semi-inhibitory concentration of the compounds acting on cells was calculated using GradPad Prism 5 software according to the measured cell growth inhibition rate.

[2] = biological target: BaF3 cell lines stably transfected with kinase EGFR L858R (Homo sapiens, UniProt P00533, L858R, cells depend on it); experiment: Growth inhibition of BaF3 cell line stably transfected with kinase EGFR L858R (MTS); conditions: 48 h, read-out: growth inhibitory activity IC50, L858R
Sequence of BaF3 cell lines stably transfected with kinase EGFR L858R (P00533 whole entry L858R): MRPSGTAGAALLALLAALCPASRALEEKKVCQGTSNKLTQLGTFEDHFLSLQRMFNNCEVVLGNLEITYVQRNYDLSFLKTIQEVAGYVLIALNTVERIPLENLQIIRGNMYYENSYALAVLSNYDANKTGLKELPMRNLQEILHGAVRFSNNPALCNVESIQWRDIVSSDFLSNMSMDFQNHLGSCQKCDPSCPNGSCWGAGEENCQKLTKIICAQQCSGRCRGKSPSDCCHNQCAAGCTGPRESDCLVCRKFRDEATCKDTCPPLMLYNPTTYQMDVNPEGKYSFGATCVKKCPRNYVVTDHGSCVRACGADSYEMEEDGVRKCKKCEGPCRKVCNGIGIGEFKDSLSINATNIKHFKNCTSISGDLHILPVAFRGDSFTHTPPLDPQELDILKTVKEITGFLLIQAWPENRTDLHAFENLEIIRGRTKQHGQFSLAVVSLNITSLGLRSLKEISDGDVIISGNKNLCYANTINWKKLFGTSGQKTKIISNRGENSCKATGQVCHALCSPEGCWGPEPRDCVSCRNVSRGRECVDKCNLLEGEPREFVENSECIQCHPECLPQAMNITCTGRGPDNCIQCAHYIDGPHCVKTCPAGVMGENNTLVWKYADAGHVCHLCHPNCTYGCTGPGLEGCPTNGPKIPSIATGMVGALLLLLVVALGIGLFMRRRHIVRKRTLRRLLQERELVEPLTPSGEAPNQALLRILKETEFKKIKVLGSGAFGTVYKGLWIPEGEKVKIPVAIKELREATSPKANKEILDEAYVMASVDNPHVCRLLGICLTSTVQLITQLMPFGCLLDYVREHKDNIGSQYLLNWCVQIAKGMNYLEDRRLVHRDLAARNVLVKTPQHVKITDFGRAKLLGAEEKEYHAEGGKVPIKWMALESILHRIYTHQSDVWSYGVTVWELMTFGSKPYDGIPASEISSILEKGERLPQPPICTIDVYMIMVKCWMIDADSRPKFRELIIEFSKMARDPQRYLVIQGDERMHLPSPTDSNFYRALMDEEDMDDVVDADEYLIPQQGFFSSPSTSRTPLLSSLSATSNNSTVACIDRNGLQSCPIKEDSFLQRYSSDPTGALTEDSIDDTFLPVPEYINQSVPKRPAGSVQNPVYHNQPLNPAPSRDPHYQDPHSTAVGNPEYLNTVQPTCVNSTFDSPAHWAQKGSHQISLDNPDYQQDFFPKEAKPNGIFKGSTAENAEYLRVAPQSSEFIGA
Description: as §1, §2, §3, §4, §5, §6

[3] = biological target: BaF3 cell lines stably transfected with kinase EGFR L858R/T790M/C797S (Homo sapiens, UniProt P00533, T790M/C797S/L858R, cells depend on it); experiment: Growth inhibition of BaF3 cell line stably transfected with kinase EGFR L858R/T790M/C797S (MTS); conditions: 48 h, read-out: growth inhibitory activity IC50, L858R/T790M/C797S
Sequence of BaF3 cell lines stably transfected with kinase EGFR L858R/T790M/C797S (P00533 whole entry T790M/C797S/L858R): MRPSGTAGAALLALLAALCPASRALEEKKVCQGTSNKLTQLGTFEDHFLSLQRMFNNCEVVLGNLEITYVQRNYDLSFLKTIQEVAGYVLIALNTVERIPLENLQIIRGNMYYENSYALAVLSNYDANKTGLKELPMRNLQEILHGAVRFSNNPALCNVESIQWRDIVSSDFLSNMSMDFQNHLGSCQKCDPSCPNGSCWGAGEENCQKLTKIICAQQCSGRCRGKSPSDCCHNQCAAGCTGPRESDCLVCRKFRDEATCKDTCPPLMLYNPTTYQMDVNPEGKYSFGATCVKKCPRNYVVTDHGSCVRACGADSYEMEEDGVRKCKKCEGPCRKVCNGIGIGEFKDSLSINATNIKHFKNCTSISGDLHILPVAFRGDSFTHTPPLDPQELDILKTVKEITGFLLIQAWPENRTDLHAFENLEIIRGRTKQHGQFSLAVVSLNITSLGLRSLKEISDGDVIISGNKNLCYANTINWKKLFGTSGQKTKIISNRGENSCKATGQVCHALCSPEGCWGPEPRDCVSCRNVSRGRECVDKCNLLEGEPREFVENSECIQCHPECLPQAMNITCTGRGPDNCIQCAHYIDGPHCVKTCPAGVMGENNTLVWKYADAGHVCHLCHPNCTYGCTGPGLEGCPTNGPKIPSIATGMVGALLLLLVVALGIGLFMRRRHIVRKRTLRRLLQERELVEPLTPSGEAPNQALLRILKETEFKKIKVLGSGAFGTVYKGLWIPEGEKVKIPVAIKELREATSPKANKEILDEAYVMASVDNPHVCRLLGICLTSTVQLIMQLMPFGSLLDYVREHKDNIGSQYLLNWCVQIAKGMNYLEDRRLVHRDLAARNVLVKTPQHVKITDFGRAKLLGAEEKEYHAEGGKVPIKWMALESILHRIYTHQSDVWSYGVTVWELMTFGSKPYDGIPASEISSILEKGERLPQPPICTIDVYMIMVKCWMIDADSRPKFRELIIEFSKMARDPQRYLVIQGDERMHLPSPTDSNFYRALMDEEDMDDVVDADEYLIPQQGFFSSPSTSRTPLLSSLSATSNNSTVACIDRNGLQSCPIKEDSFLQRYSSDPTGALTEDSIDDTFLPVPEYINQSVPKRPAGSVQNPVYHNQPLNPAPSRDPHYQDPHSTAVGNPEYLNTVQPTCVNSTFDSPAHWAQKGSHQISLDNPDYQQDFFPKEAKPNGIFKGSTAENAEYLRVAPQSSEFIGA
Description: as §1, §2, §3, §4, §5, §6

[4] = biological target: BaF3 cell lines stably transfected with kinase EGFR Del/T790M (Homo sapiens, UniProt P00533, T790M, cells depend on it, form not given); experiment: Growth inhibition of BaF3 cell line stably transfected with kinase EGFR Del/T790M (MTS); conditions: 48 h, read-out: growth inhibitory activity IC50, Del/T790M
Description: as §1, §2, §3, §4, §5, §6

[5] = biological target: BaF3 cell lines stably transfected with kinase EGFR Del (Homo sapiens, UniProt P00533, cells depend on it, form not given); experiment: Growth inhibition of BaF3 cell line stably transfected with kinase EGFR Del (MTS); conditions: 48 h, read-out: growth inhibitory activity IC50, Del
Sequence of BaF3 cell lines stably transfected with kinase EGFR Del (P00533 with tags, fused parts or gaps DEL746-750): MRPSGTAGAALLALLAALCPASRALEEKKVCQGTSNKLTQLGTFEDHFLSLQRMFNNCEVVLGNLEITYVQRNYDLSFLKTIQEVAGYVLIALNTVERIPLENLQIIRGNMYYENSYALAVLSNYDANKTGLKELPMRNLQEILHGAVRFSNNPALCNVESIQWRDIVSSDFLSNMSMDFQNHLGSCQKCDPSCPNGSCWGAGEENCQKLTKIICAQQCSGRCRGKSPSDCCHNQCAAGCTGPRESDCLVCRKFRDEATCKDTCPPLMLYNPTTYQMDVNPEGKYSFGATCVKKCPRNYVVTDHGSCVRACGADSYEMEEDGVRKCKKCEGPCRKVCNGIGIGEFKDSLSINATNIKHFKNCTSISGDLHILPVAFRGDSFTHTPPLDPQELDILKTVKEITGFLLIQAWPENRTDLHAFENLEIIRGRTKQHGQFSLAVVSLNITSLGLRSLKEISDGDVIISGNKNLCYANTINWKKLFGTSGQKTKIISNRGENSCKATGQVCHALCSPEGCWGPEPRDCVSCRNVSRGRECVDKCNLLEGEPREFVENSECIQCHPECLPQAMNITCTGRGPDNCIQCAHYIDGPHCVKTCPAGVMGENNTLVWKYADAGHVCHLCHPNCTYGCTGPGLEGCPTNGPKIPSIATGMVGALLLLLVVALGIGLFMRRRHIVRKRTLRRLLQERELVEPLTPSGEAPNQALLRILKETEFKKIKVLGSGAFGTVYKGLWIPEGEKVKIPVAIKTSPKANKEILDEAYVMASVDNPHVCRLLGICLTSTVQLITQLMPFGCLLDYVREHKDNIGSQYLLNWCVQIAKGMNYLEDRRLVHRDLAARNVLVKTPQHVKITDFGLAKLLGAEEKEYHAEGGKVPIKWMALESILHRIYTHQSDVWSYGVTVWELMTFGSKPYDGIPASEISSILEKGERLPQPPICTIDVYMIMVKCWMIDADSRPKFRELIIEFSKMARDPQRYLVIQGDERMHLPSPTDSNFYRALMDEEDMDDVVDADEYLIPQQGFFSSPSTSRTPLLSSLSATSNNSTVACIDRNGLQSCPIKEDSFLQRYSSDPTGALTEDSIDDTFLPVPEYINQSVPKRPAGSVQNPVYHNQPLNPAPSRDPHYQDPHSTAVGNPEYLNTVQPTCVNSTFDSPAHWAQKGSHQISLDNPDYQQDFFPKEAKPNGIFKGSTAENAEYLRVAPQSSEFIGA
Description: as §1, §2, §3, §4, §5, §6

[6] = biological target: BaF3 cell lines stably transfected with kinase EGFR L858R/T790M (Homo sapiens, UniProt P00533, T790M/L858R, cells depend on it); experiment: Growth inhibition of BaF3 cell line stably transfected with kinase EGFR L858R/T790M (MTS); conditions: 48 h, read-out: growth inhibitory activity IC50, L858R/T790M
Sequence of BaF3 cell lines stably transfected with kinase EGFR L858R/T790M (P00533 whole entry T790M/L858R): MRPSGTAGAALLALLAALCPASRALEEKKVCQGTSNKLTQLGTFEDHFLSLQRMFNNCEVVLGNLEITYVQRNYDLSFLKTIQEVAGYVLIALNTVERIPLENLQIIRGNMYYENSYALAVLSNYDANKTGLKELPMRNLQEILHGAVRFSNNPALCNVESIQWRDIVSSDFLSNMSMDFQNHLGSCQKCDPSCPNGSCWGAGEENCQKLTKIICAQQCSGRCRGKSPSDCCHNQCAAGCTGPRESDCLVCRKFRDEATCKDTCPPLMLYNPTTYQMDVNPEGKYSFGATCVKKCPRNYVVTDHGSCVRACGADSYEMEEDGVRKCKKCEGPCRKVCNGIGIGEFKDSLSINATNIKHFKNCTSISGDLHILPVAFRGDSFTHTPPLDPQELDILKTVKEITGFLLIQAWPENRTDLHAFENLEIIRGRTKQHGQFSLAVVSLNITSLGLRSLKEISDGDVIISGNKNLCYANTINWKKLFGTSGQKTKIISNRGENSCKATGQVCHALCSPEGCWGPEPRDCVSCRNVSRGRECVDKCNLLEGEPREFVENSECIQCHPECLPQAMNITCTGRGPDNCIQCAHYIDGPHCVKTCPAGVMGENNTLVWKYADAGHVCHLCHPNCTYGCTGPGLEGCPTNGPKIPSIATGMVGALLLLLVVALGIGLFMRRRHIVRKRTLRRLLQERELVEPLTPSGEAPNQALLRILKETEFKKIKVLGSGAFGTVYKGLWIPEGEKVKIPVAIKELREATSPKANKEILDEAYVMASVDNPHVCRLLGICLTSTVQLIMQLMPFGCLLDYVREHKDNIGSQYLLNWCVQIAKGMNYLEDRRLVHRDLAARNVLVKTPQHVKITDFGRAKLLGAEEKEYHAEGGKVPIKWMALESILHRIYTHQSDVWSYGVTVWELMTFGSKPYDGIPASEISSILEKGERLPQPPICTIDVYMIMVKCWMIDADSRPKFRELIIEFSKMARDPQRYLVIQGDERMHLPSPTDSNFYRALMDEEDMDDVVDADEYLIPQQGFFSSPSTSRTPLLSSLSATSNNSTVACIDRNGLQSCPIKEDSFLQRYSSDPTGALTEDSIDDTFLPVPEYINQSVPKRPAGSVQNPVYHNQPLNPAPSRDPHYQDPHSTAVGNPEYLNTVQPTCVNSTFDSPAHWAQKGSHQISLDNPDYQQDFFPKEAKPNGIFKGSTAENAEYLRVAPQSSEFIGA
Description: as §1, §2, §3, §4, §5, §6

| SMILES | GI50 [1] [µM] | GI50 [2] [µM] | GI50 [3] [µM] | GI50 [4] [µM] | GI50 [5] [µM] | GI50 [6] [µM] |
| --- | --- | --- | --- | --- | --- | --- |
| C=Cc1cnc(Nc2cc(CC)c(N3CCN(C)CC3)cc2OC)nc1Nc1ccc2nccnc2c1NS(C)(=O)=O [II-41] | ≤ 0.05 | ≤ 0.05 | ≤ 0.05 | ≤ 0.05 | ≤ 0.05 | 0.05 to 0.5 |
| C=Cc1cnc(Nc2ccc(N3CCC(N4CCN(C)CC4)CC3)cc2OC)nc1Nc1ccc2nccnc2c1NS(=O)(=O)C(C)C [II-42] | 0.5 to 2.5 | 0.5 to 2.5 | 0.05 to 0.5 | 0.5 to 2.5 | 0.5 to 2.5 | 0.5 to 2.5 |
| C=Cc1cnc(Nc2cc(C)c(N3CCC(N4CCN(C)CC4)CC3)cc2OC)nc1Nc1ccc2nccnc2c1NS(=O)(=O)C(C)C [II-43] | 0.05 to 0.5 | 0.05 to 0.5 | 0.05 to 0.5 | 0.05 to 0.5 | 0.05 to 0.5 | 0.5 to 2.5 |
| C=Cc1cnc(Nc2cc(CC)c(NCCO)cc2OC)nc1Nc1ccc2nccnc2c1N(C)S(C)(=O)=O [II-49] | 0.05 to 0.5 | 0.5 to 2.5 | 0.05 to 0.5 | 0.5 to 2.5 | 0.5 to 2.5 | 0.05 to 0.5 |
| C=Cc1cnc(Nc2cc(CC)c(N3CCC(N4CCNCC4)CC3)cc2OC)nc1Nc1ccc2nccnc2c1N(C)S(C)(=O)=O [II-52] | ≤ 0.05 | 0.05 to 0.5 | ≤ 0.05 | 0.05 to 0.5 | 0.05 to 0.5 | ≤ 0.05 |
| C=Cc1cnc(Nc2cc(CC)c(N3CCC(N4CCN(C)CC4)CC3)cc2OC)nc1Nc1ccc2nccnc2c1N(C)S(C)(=O)=O [II-53] | ≤ 0.05 | 0.05 to 0.5 | ≤ 0.05 | 0.05 to 0.5 | 0.05 to 0.5 | 0.05 to 0.5 |
| C=Cc1cnc(Nc2cc(CC)c(N3CCC4(CC3)CC(N(C)C)C4)cc2OC)nc1Nc1ccc2nccnc2c1N(C)S(C)(=O)=O [II-55] | 0.05 to 0.5 | 0.05 to 0.5 | 0.05 to 0.5 | 0.05 to 0.5 | 0.05 to 0.5 | 0.05 to 0.5 |
| C=Cc1cnc(Nc2cc[nH]n2)nc1Nc1ccc2nccnc2c1N(C)S(C)(=O)=O [II-59] | 0.5 to 2.5 | 0.5 to 2.5 | 0.5 to 2.5 | 0.5 to 2.5 | 0.05 to 0.5 | 0.5 to 2.5 |
| C=Cc1cnc(Nc2ccn(C(C)C)n2)nc1Nc1ccc2nccnc2c1N(C)S(C)(=O)=O [II-61] | 0.05 to 0.5 | ≤ 0.05 | 0.05 to 0.5 | 0.5 to 2.5 | 0.5 to 2.5 | 0.5 to 2.5 |
| C=Cc1cnc(Nc2cc(C)n(C)n2)nc1Nc1ccc2nccnc2c1N(C)S(C)(=O)=O [II-62] | 0.05 to 0.5 | 0.5 to 2.5 | 0.05 to 0.5 | 0.5 to 2.5 | 0.5 to 2.5 | 0.5 to 2.5 |
| C=Cc1cnc(Nc2cn(CC)nc2C)nc1Nc1ccc2nccnc2c1N(C)S(C)(=O)=O [II-68] | 0.05 to 0.5 | 0.05 to 0.5 | 0.05 to 0.5 | 0.5 to 2.5 | 0.05 to 0.5 | 0.5 to 2.5 |
| C=C(C)c1cnc(Nc2cc[nH]n2)nc1Nc1ccc2nccnc2c1N(C)S(C)(=O)=O [II-69] | 0.5 to 2.5 | 0.05 to 0.5 | 0.05 to 0.5 | 0.5 to 2.5 | 0.05 to 0.5 | 0.05 to 0.5 |
| C=C(C)c1cnc(Nc2cnn(C)c2)nc1Nc1ccc2nccnc2c1N(C)S(C)(=O)=O [II-71] | ≤ 0.05 | 0.05 to 0.5 | 0.05 to 0.5 | ≤ 0.05 | 0.05 to 0.5 | ≤ 0.05 |

Second part, the compound after the results:

| GI50 [1] [µM] | GI50 [2] [µM] | GI50 [3] [µM] | GI50 [4] [µM] | GI50 [5] [µM] | GI50 [6] [µM] | SMILES |
| --- | --- | --- | --- | --- | --- | --- |
| 0.05 to 0.5 | ≤ 0.05 | ≤ 0.05 | ≤ 0.05 | ≤ 0.05 | ≤ 0.05 | C=Cc1cnc(Nc2ccc(N3CCC(N4CCN(C)CC4)CC3)c(CC)c2)nc1Nc1ccc2nccnc2c1NS(C)(=O)=O [II-38] |
| ≤ 0.05 | ≤ 0.05 | ≤ 0.05 | ≤ 0.05 | ≤ 0.05 | ≤ 0.05 | C=Cc1cnc(Nc2cc(CC)c(N3CCC(N(C)C)CC3)cc2OC)nc1Nc1ccc2nccnc2c1NS(C)(=O)=O [II-39] |
| ≤ 0.05 | ≤ 0.05 | ≤ 0.05 | ≤ 0.05 | ≤ 0.05 | 0.05 to 0.5 | C=Cc1cnc(Nc2cc(CC)c(N3CCC(N(C)C)C3)cc2OC)nc1Nc1ccc2nccnc2c1NS(C)(=O)=O (stereo not drawn) [II-40] |
| 0.05 to 0.5 | 0.05 to 0.5 | ≤ 0.05 | 0.05 to 0.5 | 0.05 to 0.5 | 0.5 to 2.5 | C=Cc1cnc(Nc2cc(CC)c(N3CCC(N4CCN(C)CC4)CC3)cc2OC)nc1Nc1ccc2nccnc2c1NS(=O)(=O)C(C)C [II-44] |
| 0.5 to 2.5 | 0.05 to 0.5 | 0.5 to 2.5 | 0.05 to 0.5 | 0.05 to 0.5 | 0.05 to 0.5 | C=Cc1cnc(Nc2ccc(N3CCC(N4CCN(C)CC4)CC3)c(F)c2F)nc1Nc1ccc2nccnc2c1NS(C)(=O)=O [II-45] |
| 0.05 to 0.5 | 0.05 to 0.5 | 0.05 to 0.5 | 0.05 to 0.5 | 0.05 to 0.5 | ≤ 0.05 | C=Cc1cnc(Nc2cc(F)c(N3CCC(N4CCN(C)CC4)CC3)c(F)c2)nc1Nc1ccc2nccnc2c1NS(C)(=O)=O [II-46] |
| 0.05 to 0.5 | 0.5 to 2.5 | 0.05 to 0.5 | 0.05 to 0.5 | 0.5 to 2.5 | 0.05 to 0.5 | C=Cc1cnc(Nc2cc(CC)c(NCCN(C)C)cc2OC)nc1Nc1ccc2nccnc2c1N(C)S(C)(=O)=O [II-50] |
| 0.05 to 0.5 | 0.5 to 2.5 | 0.05 to 0.5 | 0.05 to 0.5 | 0.05 to 0.5 | 0.05 to 0.5 | C=Cc1cnc(Nc2cc(CC)c(N(C)CCN(C)C)cc2OC)nc1Nc1ccc2nccnc2c1N(C)S(C)(=O)=O [II-51] |
| ≤ 0.05 | ≤ 0.05 | ≤ 0.05 | ≤ 0.05 | ≤ 0.05 | 0.05 to 0.5 | C=Cc1cnc(Nc2cc(CC)c(N3CCC(C4CN(C)C4)CC3)cc2OC)nc1Nc1ccc2nccnc2c1N(C)S(C)(=O)=O [II-54] |
| 0.05 to 0.5 | 0.05 to 0.5 | 0.05 to 0.5 | 0.5 to 2.5 | 0.05 to 0.5 | 0.5 to 2.5 | C=Cc1cnc(Nc2ccn(CC)n2)nc1Nc1ccc2nccnc2c1N(C)S(C)(=O)=O [II-60] |
| 0.05 to 0.5 | 0.5 to 2.5 | 0.05 to 0.5 | 0.05 to 0.5 | 0.05 to 0.5 | 0.05 to 0.5 | C=Cc1cnc(Nc2cc(CC)n(C)n2)nc1Nc1ccc2nccnc2c1N(C)S(C)(=O)=O [II-63] |
| 0.05 to 0.5 | 0.05 to 0.5 | 0.05 to 0.5 | 0.05 to 0.5 | 0.05 to 0.5 | 0.05 to 0.5 | C=Cc1cnc(Nc2cnn(C)c2)nc1Nc1ccc2nccnc2c1N(C)S(C)(=O)=O [II-65] |
| 0.05 to 0.5 | 0.5 to 2.5 | 0.5 to 2.5 | 0.5 to 2.5 | 0.5 to 2.5 | 0.5 to 2.5 | C=Cc1cnc(Nc2cnn(CC)c2)nc1Nc1ccc2nccnc2c1N(C)S(C)(=O)=O [II-66] |
| 0.05 to 0.5 | 0.05 to 0.5 | 0.05 to 0.5 | 0.05 to 0.5 | 0.05 to 0.5 | 0.05 to 0.5 | C=Cc1cnc(Nc2cn(CC)nc2C)nc1Nc1ccc2nccnc2c1N(C)S(C)(=O)=O [II-67] |
| ≤ 0.05 | 0.05 to 0.5 | 0.05 to 0.5 | 0.05 to 0.5 | 0.05 to 0.5 | ≤ 0.05 | C=C(C)c1cnc(Nc2cn[nH]c2)nc1Nc1ccc2nccnc2c1N(C)S(C)(=O)=O [II-70] |
